Experimental data from patent US20230132133A1, “METHODS AND COMPOSITIONS FOR THE TREATMENT OF C. DIFFICILE” (priority 2018, published 2023).
In brackets after ≈: the same amount, converted by molar mass.

What was measured:
[1] = system: B. amyloliquefaciens ART12; experiment: Antibiotic MIC, VetMIC Lact-1 & Lact-2 panels; assay type: cell-based, Bacillus amyloliquefaciens; conditions: average results from N= 6, 24 hr at 37° C.; for MIC: Bacillus amyloliquefaciens, ART12
Protocol: (§1) The wells of the prefabricated 96-well plates were filled with 100 μL of the final suspension. The plates were sealed with an […], Sigma Aldrich) sealing film (to facilitate growth of the aerobic Bacillus strains. The plates were then incubated for 24 hr at 37° C. The results are recorded after 24 hours as the lowest concentration of the antibiotic to inhibit visible growth. The prefabricated panels […], Uppsala, Sweden) comprising the antibiotics ampicillin, vancomycin, gentamicin, kanamycin, streptomycin, erythromycin, clindamycin, tetracycline, chloramphenicol, neomycin, penicillin, quinupristin-dalfopristin, linezolid, trimethoprim, ciprofloxacin and rifampicin were used.

[2] = system: B. amyloliquefaciens ART4; experiment: Antibiotic MIC, VetMIC Lact-1 & Lact-2 panels; assay type: cell-based, Bacillus amyloliquefaciens; conditions: average results from N= 6, 24 hr at 37° C.; for MIC: Bacillus amyloliquefaciens, ART4
Protocol: as §1

[3] = system: B. amyloliquefaciens ART24; experiment: Antibiotic MIC, VetMIC Lact-1 & Lact-2 panels; assay type: cell-based, Bacillus amyloliquefaciens; conditions: average results from N= 6, 24 hr at 37° C.; for MIC: Bacillus amyloliquefaciens, ART24
Protocol: as §1

[4] = system: B. amyloliquefaciens ART24; experiment: Antibiotic MIC following EFSA testing recommendations on lyophilized ART24 lots and cell banks; assay type: cell-based, Bacillus amyloliquefaciens; conditions: for MIC: Bacillus amyloliquefaciens, read-out: MIC for ART24
From the text: The minimum inhibitory concentration (MIC) of the listed antimicrobials is expressed as µg/mL.

[5] = system: B. amyloliquefaciens ART12; experiment: MIC of metronidazole and fidaxomicin, CLSI standard method; assay type: cell-based; conditions: Bacillus amyloliquefaciens, triplicates, 16 hours, read-out: MIC against ART12
Protocol: (§2) Briefly, minimum inhibitory concentration assays were carried out in triplicate using 96-well plates (Sarstedt). Two-fold serial dilutions from an initial concentration of 512 µg/mL of each antibiotic were carried out in BHI broth (Merck). An overnight of the target strain was subcultured and incubated to an OD600 nm of 0.5 before being diluted to give a final inoculum of 10^5 cfu/ml in 200 µL and added to the antibiotic preparations. The plates were incubated at an appropriate temperature and inspected after 16 hours. The MIC was determined as the lowest concentration at which no growth was visible.

[6] = system: B. amyloliquefaciens ART4; experiment: as above; assay type: cell-based; conditions: Bacillus amyloliquefaciens, triplicates, 16 hours, read-out: MIC against ART4
Protocol: as §2

[7] = system: B. amyloliquefaciens ART24; experiment: as above; assay type: cell-based; conditions: Bacillus amyloliquefaciens, triplicates, 16 hours, read-out: MIC against ART24
Protocol: as §2

Row | Molecule | MIC [1] [µg/mL] | MIC [2] [µg/mL] | MIC [3] [µg/mL] | MIC ([4]; ART24, source CO-33-12A2) [µg/mL] | MIC ([4]; ART24, source CO-33 ART 24 BHI) [µg/mL] | MIC ([4]; ART24, source CO-33 ART 024 S) [µg/mL] | MIC ([4]; ART24, source YD CO-33-10A2) [µg/mL] | MIC interpretation for ART24 ([4]; source CO-33-12A2) | MIC interpretation for ART24 ([4]; source CO-33 ART 24 BHI) | MIC interpretation for ART24 ([4]; source CO-33 ART 024 S) | MIC interpretation for ART24 ([4]; source YD CO-33-10A2) | also measured
1 | CC1(C)S[C@@H]2[C@H](NC(=O)[C@H](N)c3ccccc3)C(=O)N2[C@H]1C(=O)O [Ampicillin] | 0.25 (≈ 0.715 µM) | 0.12 (≈ 0.343 µM) | 0.25 (≈ 0.715 µM) | ≤ 0.03 | ≤ 0.03 | ≤ 0.03 | ≤ 0.03 | S | S | S | S | 
2 | O=C(N[C@H](CO)[C@H](O)c1ccc([N+](=O)[O-])cc1)C(Cl)Cl [Chloramphenicol] | 4 (≈ 12.4 µM) | 2 (≈ 6.19 µM) | 4 (≈ 12.4 µM) | 2 (≈ 6.19 µM) | 2 (≈ 6.19 µM) | 2 (≈ 6.19 µM) | 2 (≈ 6.19 µM) | S | S | S | S | 
3 | O=C(O)c1cn(C2CC2)c2cc(N3CCNCC3)c(F)cc2c1=O [Ciprofloxacin] | ≤ 0.25 | ≤ 0.25 | ≤ 0.25 | ≤ 0.03 | ≤ 0.03 | ≤ 0.03 | ≤ 0.03 | S | S | S | S | 
4 | CCC[C@@H]1C[C@@H](C(=O)N[C@@H]([C@H]2O[C@H](SC)[C@H](O)[C@@H](O)[C@H]2O)[C@H](C)Cl)N(C)C1 [Clindamycin] | 1 (≈ 2.35 µM) | 0.5 (≈ 1.18 µM) | 0.5 to 1 (≈ 1.18 to 2.35 µM) | 0.25 (≈ 0.588 µM) | 0.25 (≈ 0.588 µM) | 0.25 (≈ 0.588 µM) | 0.12 (≈ 0.282 µM) | S | S | S | S | 
5 | CC[C@H]1OC(=O)[C@H](C)[C@@H](O[C@H]2C[C@@](C)(OC)[C@@H](O)[C@H](C)O2)[C@H](C)[C@@H](O[C@@H]2O[C@H](C)C[C@H](N(C)C)[C@H]2O)[C@](C)(O)C[C@@H](C)C(=O)[C@H](C)[C@@H](O)[C@]1(C)O [Erythromycin] | 0.12 (≈ 0.164 µM) | 0.12 (≈ 0.164 µM) | 0.12 (≈ 0.164 µM) | 0.06 (≈ 0.0818 µM) | 0.12 (≈ 0.164 µM) | 0.12 (≈ 0.164 µM) | 0.06 (≈ 0.0818 µM) | S | S | S | S | 
6 | CCc1c(Cl)c(O)c(Cl)c(O)c1C(=O)O[C@H]1[C@H](O)[C@H](OC)[C@H](OC/C2=C\C=C\C[C@H](O)/C(C)=C/[C@H](CC)[C@@H](O[C@@H]3OC(C)(C)[C@@H](OC(=O)C(C)C)[C@H](O)[C@@H]3O)/C(C)=C/C(C)=C/C[C@@H]([C@@H](C)O)OC2=O)O[C@@H]1C [Fidaxomicin, fidaxomicin] |  |  |  | 4 (≈ 3.78 µM) | 4 (≈ 3.78 µM) | 4 (≈ 3.78 µM) | 2 (≈ 1.89 µM) |  |  |  |  | MIC [5]: < 1 µg/mL; MIC [6]: < 1 µg/mL; MIC [7]: 2 µg/mL
7 | NC[C@H]1O[C@H](O[C@H]2[C@H](O)[C@@H](O[C@H]3O[C@H](CO)[C@@H](O)[C@H](N)[C@H]3O)[C@H](N)C[C@@H]2N)[C@H](O)[C@@H](O)[C@@H]1O [Kanamycin] | ≤ 2 | ≤ 2 | ≤ 2 | ≤ 0.5 | ≤ 0.5 | ≤ 0.5 | ≤ 0.5 | S | S | S | S | 
8 | CC(=O)NC[C@H]1CN(c2ccc(N3CCOCC3)c(F)c2)C(=O)O1 [Linezolid] | 0.5 (≈ 1.48 µM) | 0.5 (≈ 1.48 µM) | 0.5 (≈ 1.48 µM) | 0.5 (≈ 1.48 µM) | 0.5 (≈ 1.48 µM) | 0.5 (≈ 1.48 µM) | 0.25 (≈ 0.741 µM) |  |  |  |  | 
9 | Cc1ncc([N+](=O)[O-])n1CCO [Metronidazole, metronidazole] |  |  |  | > 64 | > 64 | > 64 | > 64 |  |  |  |  | MIC [5]: 64 µg/mL; MIC [6]: 128 µg/mL; MIC [7]: 128 µg/mL; MIC ([4]; ART24, anaerobic, source CO-33-12A2): 64 µg/mL (≈ 374 µM); MIC ([4]; ART24, anaerobic, source CO-33 ART 24 BHI): 64 µg/mL (≈ 374 µM); MIC ([4]; ART24, anaerobic, source CO-33 ART 024 S): 64 µg/mL (≈ 374 µM); MIC ([4]; ART24, anaerobic, source YD CO-33-10A2): 64 µg/mL (≈ 374 µM)
10 | CO[C@H]1/C=C/O[C@@]2(C)Oc3c(C)c(O)c4c(O)c(c(/C=N/N5CCN(C)CC5)c(O)c4c3C2=O)NC(=O)/C(C)=C\C=C\[C@H](C)[C@H](O)[C@@H](C)[C@@H](O)[C@@H](C)[C@H](OC(C)=O)[C@@H]1C [Rifampicin] | 0.5 (≈ 0.608 µM) | 0.25 (≈ 0.304 µM) | 0.5 (≈ 0.608 µM) | 0.25 (≈ 0.304 µM) | 0.25 (≈ 0.304 µM) | 0.25 (≈ 0.304 µM) | 0.25 (≈ 0.304 µM) | S | S | S | S | 
11 | [H]/N=C(/N)N[C@H]1[C@H](O)[C@@H](O)[C@H](O[C@@H]2O[C@@H](C)[C@](O)(C=O)[C@H]2O[C@@H]2O[C@@H](CO)[C@H](O)[C@@H](O)[C@@H]2NC)[C@@H](N/C(N)=N\[H])[C@@H]1O [Streptomycin] | 4 (≈ 6.88 µM) | 4 (≈ 6.88 µM) | 4 (≈ 6.88 µM) | 1 (≈ 1.72 µM) | 1 (≈ 1.72 µM) | 2 (≈ 3.44 µM) | 1 (≈ 1.72 µM) | S | S | S | S | 
12 | CN(C)[C@@H]1C(O)=C(C(N)=O)C(=O)[C@@]2(O)C(O)=C3C(=O)c4c(O)cccc4[C@@](C)(O)[C@H]3C[C@@H]12 [Tetracycline] | 8 (≈ 18 µM) | 1 (≈ 2.25 µM) | 4 (≈ 9 µM) | 2 (≈ 4.5 µM) | 2 (≈ 4.5 µM) | 2 (≈ 4.5 µM) | 2 (≈ 4.5 µM) | S | S | S | S | 
13 | COc1cc(Cc2cnc(N)nc2N)cc(OC)c1OC [Trimethoprim] | ≤ 0.12 | ≤ 0.12 | ≤ 0.12 | ≤ 0.25 | ≤ 0.25 | ≤ 0.25 | ≤ 0.25 |  |  |  |  | 
14 | Gentamicin |  |  |  |  |  |  |  | S | S | S | S | B. amyloliquefaciens MIC ART12 [1]: ≤0.5 µg/mL; B. amyloliquefaciens MIC ART4 [2]: ≤0.5 µg/mL; B. amyloliquefaciens MIC ART24 [3]: ≤0.5 µg/mL; MIC for ART24 ([4]; source CO-33-12A2): ≤ 0.06 µg/mL; MIC for ART24 ([4]; source CO-33 ART 24 BHI): ≤ 0.06 µg/mL; MIC for ART24 ([4]; source CO-33 ART 024 S): ≤ 0.06 µg/mL; MIC for ART24 ([4]; source YD CO-33-10A2): ≤ 0.06 µg/mL
15 | Neomycin |  |  |  |  |  |  |  |  |  |  |  | B. amyloliquefaciens MIC ART12 [1]: ≤0.5 µg/mL; B. amyloliquefaciens MIC ART4 [2]: ≤0.5 µg/mL; B. amyloliquefaciens MIC ART24 [3]: ≤0.5 µg/mL; MIC for ART24 ([4]; source CO-33-12A2): ≤0.12 µg/mL; MIC for ART24 ([4]; source CO-33 ART 24 BHI): ≤0.12 µg/mL; MIC for ART24 ([4]; source CO-33 ART 024 S): ≤0.12 µg/mL; MIC for ART24 ([4]; source YD CO-33-10A2): ≤0.12 µg/mL
16 | Penicillin |  |  |  |  |  |  |  | S | S | S | S | B. amyloliquefaciens MIC ART12 [1]: 0.5 µg/mL; B. amyloliquefaciens MIC ART4 [2]: 0.12 µg/mL; B. amyloliquefaciens MIC ART24 [3]: 0.12 to 0.5 µg/mL; MIC for ART24 ([4]; source CO-33-12A2): ≤ 0.03 µg/mL; MIC for ART24 ([4]; source CO-33 ART 24 BHI): ≤ 0.03 µg/mL; MIC for ART24 ([4]; source CO-33 ART 024 S): 0.06 µg/mL; MIC for ART24 ([4]; source YD CO-33-10A2): ≤ 0.03 µg/mL
17 | Quinupristin-dalfopristin |  |  |  |  |  |  |  |  |  |  |  | B. amyloliquefaciens MIC ART12 [1]: 4 µg/mL; B. amyloliquefaciens MIC ART4 [2]: 4 µg/mL; B. amyloliquefaciens MIC ART24 [3]: 4 µg/mL; MIC for ART24 ([4]; source CO-33-12A2): 2 µg/mL; MIC for ART24 ([4]; source CO-33 ART 24 BHI): 2 µg/mL; MIC for ART24 ([4]; source CO-33 ART 024 S): 2 µg/mL; MIC for ART24 ([4]; source YD CO-33-10A2): 1 µg/mL
